Source: patent US9662319B2 (Mayo Foundation for Medical Education and Research, priority 2011, dated 2017)

What was measured:
[1] = system: CRBN depleted myeloma cell lines; assay: MTT cell viability of CRBN shRNA knock-down myeloma cell lines versus NT control cells in presence of anti-myeloma drugs; type: cell-based, human; details: sorted GFP positive myeloma cell lines with CRBN knock-down
Description: (§1) The lentiviruses expressing NT or CRBN shRNAs were subcloned into a GFP containing construct and used to infect various myeloma cell lines as described elsewhere (Zhu et al., Blood, 117(14):3847-3857 (2011); Epublished Feb. 2, 2011). After a 48-hour infection period, efficiency was measured at 72 hours and 6 days post infection by FACScan analysis of GFP expression. Cell viability was measured by 3-(4,5-dimethylthiazol)-2,5-diphenyl tetrazolium (MTT) dye absorbance according to the manufacturer's instructions (Boehringer Mannheim, Mannheim, Germany). Cells were also harvested at 72 hours post infection for real-time PCR analysis of CRBN levels in control and CRBN shRNA expressing cells. At three weeks post infection, GFP-positive cells were sorted and expanded. Real-time PCR was performed to measure CRBN levels in sorted cells.
Plates were incubated for 72 hours to six days. Cell viability was determined using an MTT assay. Each experimental condition was performed in triplicate and repeated at least once.
Proliferation of those CRBN depleted but surviving MM cells were then tested in the absence or presence of different anti-myeloma drugs.

human MM cells lines = assay: MTT assay, baseline cytotoxicity on a panel of human MM cell lines; type: cell-based; details: 11 tested MM cell lines, 1.6 μM to 50 μM, 72 hours, in vitro
Description: as §1
In some experiments, cells were incubated with various doses of lenalidomide, dexamethasone, melphalan, or bortezomib. Plates were incubated for 72 hours to six days. Cell viability was determined using an MTT assay. Each experimental condition was performed in triplicate and repeated at least once.
A MTT assay was performed on a panel of genetically heterogeneous human MM cells lines in vitro (FIG. 1). […] The same dose of thalidomide, however, had no effect on MM cell growth.

Row | Structure (SMILES) | sensitivity of CRBN knock-down cells compared with NT control cells [1] | growth of MM cell lines (MTT) (human MM cells lines)
1 | CC(C)C[C@H](NC(=O)[C@H](Cc1ccccc1)NC(=O)c1cnccn1)B(O)O [Bortezomib] | more sensitive | –
2 | Nc1cccc2c1C(=O)N(C1CCC(=O)NC1=O)C2=O (stereo not shown) [pomalidomide] | resistance | –
3 | Nc1cccc2c1CN(C1CCC(=O)NC1=O)C2=O (stereo not shown) [Lenalidomide] | – | inhibited growth of 8 of 11 tested MM cell lines
4 | O=C1CCC(N2C(=O)c3ccccc3C2=O)C(=O)N1 (stereo not shown) [thalidomide] | – | no effect
